What was measured:
[1] = system: intracellular carboxylesterases (U937 cell extract); experiment: Broken cell carboxylesterase assay, U937 cell extract; format: in vitro ADME; settings: ester 2.5 μM, 37° C.
Method: Any given compound of the present invention wherein R1 is an ester group may be tested to determine whether it meets the requirement that it be hydrolysed by intracellular esterases, by testing in the following assay.
U937 or Hut78 tumour cells (˜10^9) were washed in 4 volumes of Dulbeccos PBS (˜1 liter) and pelleted at 525 g for 10 min at 4° C. This was repeated twice and the final cell pellet was resuspended in 35 mL of cold homogenising buffer (Trizma 10 mM, NaCl 130 mM, CaCl2 0.5 mM pH 7.0 at 25° C.). Homogenates were prepared by nitrogen cavitation (700 psi for 50 min at 4° C.). The homogenate was kept on ice and supplemented with a cocktail of inhibitors at final concentrations of: • Leupeptin 1 μM • Aprotinin 0.1 μM • E64 8 μM • Pepstatin 1.5 μM • Bestatin 162 μM • Chymostatin 33 μM After clarification of the cell homogenate by centrifugation at 525 g for 10 min, the resulting supernatant was used as a source of esterase activity and was stored at −80° C. until required. Measurement of Ester Cleavage
Hydrolysis of esters to the corresponding carboxylic acids can be measured using the cell extract, prepared as above. To this effect cell extract (˜30 μg/total assay volume of 0.5 ml) was incubated at 37° C. in a Tris-HCl 25 mM, 125 mM NaCl buffer, pH 7.5 at 25° C. At zero time the ester (substrate) was then added at a final concentration of 2.5 μM and the samples were incubated at 37° C. for the appropriate time (usually 0 or 80 min). Reactions were stopped by the addition of 3× volumes of acetonitrile. For zero time samples the acetonitrile was added prior to the ester compound. After centrifugation at 12000 g for 5 min, samples were analysed for the ester and its corresponding carboxylic acid at room temperature by LCMS (Sciex API 3000, HP1100 binary pump, CTC PAL). Chromatography was based on an AceCN (75×2.1 mm) column and a mobile phase of 5-95% acetonitrile in water/0.1% formic acid.
Rates of hydrolysis are expressed in pg/mL/min.

[2] = system: U937 cells; experiment: U937 cell inhibition assay (WST-1 cell viability); format: cell-based; settings: Homo sapiens, U-937; U937 cells; IC50 allocated to ranges; read-out: U937 activity
Outline: (§1)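 Log-phase cells seeded at 1000-2000/well, grown 24 h, then exposed to compound for 72-96 h before WST-1 viability readout. Eight concentrations (top 10 μM final, 3-fold steps), 6 replicates; % inhibition versus DMSO, IC50 by sigmoidal variable-slope fit.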

[3] = system: HUT78 cells; experiment: HUT cell inhibition assay (WST-1 cell viability); format: cell-based; settings: Homo sapiens; HUT78 cells; IC50 allocated to ranges; read-out: HUT activity
Outline: as §1

[4] = system: HeLa cells; experiment: HeLa cell inhibition assay (sulphorhodamine B cell viability); format: cell-based; settings: Homo sapiens, IC50 allocated to ranges
Method: HeLa cells growing in log phase were harvested and seeded at 1000 cells/well (200 μl final volume) into 96-well tissue culture plates. Following 24 h of cell growth cells were treated with compounds (final concentration of 20 μM). Plates were then re-incubated for a further 72 h before a sulphorhodamine B (SRB) cell viability assay was conducted according to the methodology described by Skehan et al, J. Natl. Canc. Inst., 1990, 82, 1107-1112.
Data were expressed as a percentage inhibition of the control, measured in the absence of inhibitor, as follows:— % inhibition=100−[(S^i/S^o)×100] where S^i is the signal in the presence of inhibitor and S^o is the signal in the presence of DMSO.
IC50 values were determined by non-linear regression analysis, after fitting the results of eight data points to the equation for sigmoidal dose response with variable slope (% activity against log concentration of Compound), using Graphpad Prism software.

[5] = target: histone deacetylase activity (HeLa nuclear extract); experiment: HDAC fluorescent activity assay (Fluor de Lys, Biomol); format: biochemical; settings: IC50 allocated to ranges, read-out: HDAC activity
Outline: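 HeLa nuclear extract as HDAC source incubated with acetyl-lysine Fluor de Lys substrate ± inhibitor; developer then releases fluorophore from deacetylated substrate. Activity as % of vehicle control after no-enzyme background subtraction; IC50 from eight-point variable-slope sigmoidal fit.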

Row | Compound | Hydrolysis Rate Range U937 Cells [1] | also measured
1 | Cc1ccc2cc(C(=O)NO)sc2c1 [drawing 101] | >50000 pg/mL/min | –
2 | Cc1ccc2cc(C(=O)NO)sc2c1 [drawing 98] | >50000 pg/mL/min | –
3 | Cc1ccc2cc(C(=O)NO)sc2c1 [drawing 84] | 1000 to 50000 pg/mL/min | –
4 | Cc1ccc2cc(C(=O)NO)sc2c1 [drawing 87] | >50000 pg/mL/min | –
5 | O=C(/C=C/c1cccc(CNCC2CCC(CN[C@H](C(=O)OC3CCCC3)C3CCCCC3)CC2)c1)NO (stereo partly drawn) [Example 79, Cyclopentyl (2S)-cyclohexyl[({4-[({3-[(1E)-3-(hydroxyamino)-3-oxoprop-1-en-1-yl]benzyl}amino)methyl]cyclohexyl}methyl)amino]acetate] | – | IC50 [2]: 331 to 3300 nM; IC50 [3]: 331 to 3300 nM; IC50 [4]: 331 to 3300 nM; IC50 [5]: > 1000 nM

Continued, in another order:

Row | Hydrolysis Rate Range U937 Cells [1] | Compound | also measured
6 | >50000 pg/mL/min | Cc1ccc(NCc2cnc3nc(N)nc(N)c3c2C)cc1 [drawing 90] | –
7 | 1000 to 50000 pg/mL/min | Cc1ccc(NCc2cnc3nc(N)nc(N)c3c2C)cc1 [drawing 94] | –
8 | 100 to 1000 pg/mL/min | COc1cc2c(Oc3ccc(NC(=O)c4ccccc4)cc3)ccnc2cc1C | –
9 | >50000 pg/mL/min | Cc1ccc(NCc2cnc3nc(N)nc(N)c3c2C)cc1 [drawing 96] | –
10 | 1000 to 50000 pg/mL/min | Cc1ccc(NCc2cnc3nc(N)nc(N)c3c2C)cc1 [drawing 92] | –
